According to patent US5830903A, “Triazole substituted quinoline derivatives for gastrointestinal treat-treatment” (Alkaloida Chemical Co., Ltd., priority 1993, dated 1998):
Marks after values point to notes of the source that are not given here.

Experiments:
[1] = tested on: ulcers induced by reserpine; experiment: Reserpine induced ulcers; format: in vivo, female OFA rats; conditions: 40 mg/kg p.o.; reserpine 5 mg/kg s.c.; 18 h
Procedure: Female OFA rats of 130-160 g weight, starved for 24 hours, were treated at the same time perorally with 40 mg/kg doses of the substances to be tested and with 5 mg/kg s.c. doses of reserpine. After 18 hours the animals were over-anesthesized and the removed stomachs were investigated under stereomicroscope using a 8-fold enlargement. The number of ulcers was counted and their size was evaluated using 0-0.5-1-2-4-8-16-32 scores. The number of animals was 5 for each dose.

[2] = tested on: alcohol induced increase of gastric glandular capillary permeability; experiment: Alcohol induced increase of gastric glandular capillary permeability; format: in vivo, rats; conditions: for Evans-blue: p < 0.05
Procedure: After 13 minutes 1 ml of 100% ethanol was added perorally and after further 2 minutes the stomachs were removed and their weights measured. […]

[3] = tested on: stress ulcer caused by immersion; experiment: Stress ulcer caused by immersion; format: in vivo, Wistar rats
Procedure: 30 minutes after peroral treatment with the test substance, […]. After seven hours the glandular lesions appearing in the stomach were evaluated according to the score described in Example I.1.

[4] = tested on: gastric blood-supply; experiment: Gastric blood-supply, Rb^86 isotope method (Sapirstain); format: in vivo, Wistar female rats; conditions: 100 mg/kg p.o., n = 11, ± SE
Procedure: To investigate influence of gastric blood-supply the tests were carried out according to the method of Sapirstain using Rb^86 isotopes (Circ.Res.4, 689, 1956; Am. J. Physiol. 193. 161,1958). The test substances were administered perorally 2 hours before the experiment started and the degree of blood flow was determined in ml/min/g values. In the experiments the stomachs of Wistar female rats were divided into three segments i.e. pre-stomach, corpus and anthrum.

[5] = tested on: histamine stimulated hydrochlorid acid secretion; experiment: Histamine stimulated gastric acid secretion in Shay rats; format: in vivo; conditions: for acid secretion μEqu/4^h: p < 0.01
Procedure: The test substances were added on the course of operation intra-duodenally. Immediately after operation each rat obtained 0.50 ml s.c. of a physiological salt solution for hydration. After 4 hours the rats were over-anesthesized, the stomach liquid was collected, centrifugated and the volume determined. […] Measurement of stimulated secretion of gastric acid was also carried out according to the above method.

[6] = tested on: lesions caused by intomethacin; experiment: Indomethacin-induced gastric lesions; format: in vivo, female OFA-rats; conditions: Rattus norvegicus, po, 60 min before 20 mg/kg indomethacin; 6 h; from ulcer index; confidence limits 95%; read-out: ED50 mg/kg (p.o.)
Procedure: The compounds were administered in a volume of 0.5 ml/100 g in a suspension prepared in water with 2-4% Tween-80. After 6 hours the animals were over-anesthesized and their stomachs were opened along the greater curvature. The preparations were investigated by stereomicroscopy using an 8-fold enlargement. The number, size and incidence of erosions and ulcers was noted and compared with the control group treated with the carrier only.
The size of the ulcers was determined on the basis of the following score:
1: ulcer or erosion of the size of 1-2 mm;
2: ulcer or erosion of the size of 2-3 mm;
3: ulcer or erosion of the size of 3-4 mm;
4: ulcer longer than 4 mm;
5: ulcer longer and broader than 4 mm.
The ED50 values were calculated on the basis of ulcer-indexes:
ulcer index=/severeity of lesion x number of lesions/number of animals /n/

[7] = tested on: lesions induced with hydrochloric acid and ethanol; experiment: Gastric haemorrhages induced by hydrochloric acid in ethanol (cytoprotection); format: in vivo, female rats; conditions: for average length of haemmorrhages, change in %: treated vs control
Procedure: The volume of treatment was 0.5 ml/100 g. […] The average degree of haemorrhages of the treated groups was compared to the control groups treated with the vehicle only. Number of animals was 6-18 in each group.

[8] = Acute toxicity in rats; conditions: rat, in vivo, po, per os, 14 days
Procedure: (§1) To determine acute toxicity the test substances were administered in increasing doses to CFLP male mice (18-20 g) and to male Wistar rats (150-160 g). The LD50 values were calculated after 14 days of observation according to Litchfield and Wilcoxon.

[9] = tested on: lesions caused by the NSAID piroxicam; experiment: Piroxicam-induced gastric erosions, test substance 1 hour after piroxicam; format: in vivo, WISTAR rats; conditions: n = 7
Procedure: (§2) Administration of the test substances followed 1 hour after injection. After 4 hours the animals were over-anesthesized with ether and the changes (erosions) were evaluated as in Example I.1. The size of the lesions was characterized by way of the ulcer index.

[10] = Acute toxicity in mice; conditions: mouse, in vivo, po, per os, 14 days
Procedure: as §1

[11] = tested on: lesions caused by the NSAID naproxen; experiment: Naproxen-induced gastric erosions, test substance 1 hour after naproxen; format: in vivo, WISTAR rats; conditions: n = 7
Procedure: as §2

[12] = tested on: basic gastric acid secretion; experiment: Basic gastric acid secretion in Shay rats (pylorus ligation); format: in vivo; conditions: for acidity μEqu/ml / volume: 4 h
Procedure: The pilorus of Shay rats of 150-170 g weight was tied in ether narcosis /Gastroenterology 5,43,1945/. The test substances were added on the course of operation intra-duodenally. Immediately after operation each rat obtained 0.50 ml s.c. of a physiological salt solution for hydration. After 4 hours the rats were over-anesthesized, the stomach liquid was collected, centrifugated and the volume determined. Acidity of the secretion was determined with 0.1N aqueous sodium hydroxide in the presence of a Tobfler reagent.

[13] = 25 mg/kg p.o., n = 10, p < 0.01
[14] = histamine 10 mg/kg s.c. + 5 mg/kg i.d., p < 0.05
[15] = naproxen 75 mg/kg po. + 20 mg/kg po.

c1ccc2c(-n3cncn3)ccnc2c1 [Substance 1, 4-(1H-1,2,4-triazole-1-yl)-quinoline]
number of ulcers, %change compared with control [1]: +4% | severity of ulcers, %change compared with control [1]: +9% | ulcers per treated [1]: 5/5 | alcohol-induced lesions (in words) ([2]; 10 and 20 mg/kg): alcohol-induced lesions are reduced | stomach ([2]; 100% ethanol + 10 mg/kg): 0.91 ± 0.1 g | Evans-blue ([2]; 100% ethanol + 10 mg/kg): 4.55 ± 0.3 µg/g | stomach ([2]; 100% ethanol + 20 mg/kg): 0.93 ± 0.1 g | Evans-blue ([2]; 100% ethanol + 20 mg/kg): 4.4 ± 0.23 µg/g | erosion inhibition % ([3]; 10 mg/kg p.o., n = 7): 21% | erosion ulcus-index mm ([3]; 10 mg/kg p.o., n = 7): 33.6 ± 10.2 mm | hyperemia inhibition % ([3]; 10 mg/kg p.o., n = 7): 29% | hyperemia ulcer-index mm ([3]; 10 mg/kg p.o., n = 7): 64.3 ± 8.6 mm | erosion ulcus-index mm ([3]; 25 mg/kg p.o., n = 10): 12.1 ± 3.6 mm | hyperemia ulcer-index mm ([3]; 25 mg/kg p.o., n = 10): 35.8 ± 9.4 mm | erosion inhibition % [3, 13]: 71% | hyperemia inhibition % [3, 13]: 55% | erosion ulcus-index mm ([3]; 50 mg/kg p.o., n = 7): 5.7 ± 1.5 mm | hyperemia ulcer-index mm ([3]; 50 mg/kg p.o., n = 7): 11.4 ± 2.8 mm | erosion inhibition % ([3]; 50 mg/kg p.o., n = 7, p < 0.01): 87% | hyperemia inhibition % ([3]; 50 mg/kg p.o., n = 7, p < 0.01): 85% | inhibition of hyperemia and erosion (in words) ([3]; substance 1 at 50 mg/kg p.o., cimetidine): significally inhibit hyperemia and erosion | blood flow, pre-stomach ([4]; control 0.23 ± 0.03): 0.19 ± 0.01 mL/min/g | blood flow, corpus ([4]; control 0.51 ± 0.03, p < 0.02): 0.70 ± 0.09 mL/min/g | blood flow, anthrum ([4]; control 0.71 ± 0.07): 1.01 ± 0.07 mL/min/g | acid secretion μEqu/4^h ([5]; histamine 10 mg/kg s.c. + 5 mg/kg i.d.): 180 ± 12 μEqu/4^h | acidity μEqu/ml [5, 14]: 105 ± 10 μEqu/ml | volume/4^h [5, 14]: 1.7 ± 0.2 mL | acid secretion μEqu/4^h ([5]; histamine s.c. + 10 mg/kg i.d.): 111 ± 9 μEqu/4^h | acidity μEqu/ml ([5]; histamine s.c. + 10 mg/kg i.d., p < 0.05): 123 ± 8 μEqu/ml | ED50 [6]: 13 mg/kg | average length of haemmorrhages, treated ([7]; 2.3 mg/kg p.o., n = 12, control 95.7 ± 9.4): 91.0 ± 9.4 mm | average length of haemmorrhages, change in % ([7]; 2.3 mg/kg p.o.): -4% | average length of haemmorrhages, treated ([7]; 5.0 mg/kg p.o., n = 18, control 92.9 ± 6.3): 39.7 ± 8.1 mm | average length of haemmorrhages, change in % ([7]; 5.0 mg/kg p.o.): -57% | average length of haemmorrhages, treated ([7]; 10.0 mg/kg p.o., n = 18, control 61.3 ± 9.8): 14.2 ± 7.4 mm | average length of haemmorrhages, change in % ([7]; 10.0 mg/kg p.o.): -77% | LD50 at 336 h [8]: 560 mg/kg | inhibition % ([9]; piroxicam 60 mg/kg po. + 20 mg/kg po.): 84% | ulcus index ± SEM ([9]; piroxicam 60 mg/kg po. + 20 mg/kg po., p < 0.05): 3.8 ± 0.4 | inhibition % ([9]; piroxicam, 30 mg/kg po.): 93% | ulcus index ± SEM ([9]; piroxicam, 30 mg/kg po., p < 0.01): 1.8 ± 0.5 | LD50 at 336 h [10]: 840 mg/kg | inhibition % [11, 15]: 39% | ulcus index ± SEM [11, 15]: 15.6 ± 6.4 | inhibition % ([11]; naproxen, 30 mg/kg po.): 95% | ulcus index ± SEM ([11]; naproxen, 30 mg/kg po., p < 0.01): 1.2 ± 0.5 | acidity μEqu/ml ([12]; dose 5 i.d.): 105 ± 5 μEqu/ml | volume ([12]; dose 5 i.d., p < 0.05): 1.4 ± 1.24 mL | acid secretion μEqu/4^h ([12]; dose 5 i.d., p < 0.05): 147.0 ± 0.19 μEqu/4^h | acidity μEqu/ml ([12]; dose 10 i.d., not possible to titrate part of the secretion because of small volume): 61 ± 5 μEqu/ml | volume ([12]; dose 10 i.d., p < 0.01): 0.58 ± 0.1 mL | acid secretion μEqu/4^h ([12]; dose 10 i.d., p < 0.01): 42.0 ± 0.3 μEqu/4^h
